Test results published in US6599541B1, “Composition for treatment of drug resistant bacterial infections and a method of treating drug resistant bacterial infections” (priority 1999, dated 2003).

Assays:
[1] = system: Staphylococcus aureus; test: Agar Dilution Method of Sensitivity testing, NE alone and NE + antibiotic; assay type: cell-based; conditions: resistant S. aureus cultures, 48 hours
Experimental: Two kinds of investigations were carried-out using these bacterial isolates—using an Agar Dilution Method of Sensitivity testing.
i) To ascertain whether, NE can work as an antibacterial substance on its own. For this purpose, a stock-solution of NE was prepared and was sterilized as described in the preliminary experiments.
ii) This stock-solution was dispensed into the culture medium (Mueller Hinton Agar) so as to provide while; the medium was in liquid form. Four different concentrations of NE, viz.
iii) This medium was poured into petri dishes and allowed to solidify. Resistant cultures were inoculated on to these plates and after incubation for 48 hours, the growth patterns were assessed.
iv) The experiments were run in triplicate, for each concentration—as per standard practices of microbiological testing procedures.
i) The culture medium (Mueller Hinton Agar) was melted and distributed into a number of test tubes.
ii) The stock solution of NE was dispensed into these test tubes in four different concentrations viz.
iii) In the same medium, one of the antibiotics under investigation was also added so as to provide a variable concentration (at break-even point concentration) as described below:
iv) The culture medium containing NE extract+the antibiotic were poured into petri dishes and allowed to solidify.
v) The resistant bacterial strains were inoculated onto these plates, incubated for 48 hours and the growth patterns were studied on each plate.
These cultures were obtained various clinical samples, such as sputum, non-healing infected wounds, throat swabs etc.

[2] = highest serum concentration reached after the maximum therapeutic dose in-vivo; cited from earlier work
[3] = antibiotic at break-even point + NE 125 μg/mL
[4] = antibiotic at break-even point + NE 250 μg/mL
[5] = antibiotic at break-even point + NE 500 μg/mL
[6] = antibiotic at break-even point + NE 1000 μg/mL

| Compound | Growth Patterns after addition of NE: no. of cultures +++ (growth) [1, 3] | Growth Patterns after addition of NE: no. of cultures −−− (inhibition of growth) [1, 3] | Growth Patterns after addition of NE: no. of cultures +++ (growth) [1, 4] | Growth Patterns after addition of NE: no. of cultures −−− (inhibition of growth) [1, 4] | Growth Patterns after addition of NE: no. of cultures +++ (growth) [1, 5] | Growth Patterns after addition of NE: no. of cultures −−− (inhibition of growth) [1, 5] | Growth Patterns after addition of NE: no. of cultures +++ (growth) [1, 6] | Growth Patterns after addition of NE: no. of cultures −−− (inhibition of growth) [1, 6] | break point [2] [µg/mL] |
| --- | --- | --- | --- | --- | --- | --- | --- | --- | --- |
| CC1=C(C(=O)O)N2C(=O)[C@@H](NC(=O)[C@H](N)c3ccccc3)[C@H]2SC1 [Cephalexin] | 81 | 21 | 81 | 21 | 81 | 21 | 81 | 21 | 18 |
| CC1(C)S[C@@H]2[C@H](NC(=O)[C@H](N)c3ccc(O)cc3)C(=O)N2[C@H]1C(=O)O [Amoxacillin] | – | – | – | – | – | – | – | – | 16 |
| Gentamicin | 89 | 13 | 88 | 14 | 88 | 14 | 88 | 14 | – |
